Molecules are shown by their SMILES.

Eight compounds from patent publication US20230339889A1, “DERIVATIVES OF 2-OXO-N-(4-(PYRIMIDIN-4-YLOXY/THIO)PHENYL)-1,2-DIHYDROPYRIDINE-3-CARBOXAMIDE FOR USE AS PROTEIN KINASE INHIBITORS FOR THERAPY” (AUCENTRA THERAPEUTICS PTY LTD, priority 2020, published 2023) can be followed below.

One assay addresses T1, AXL (Homo sapiens, UniProt P30530).
T1 construct: purchased Eurofins Discovery (Kinase Profiler service)
T1 sequence (P30530 26-894): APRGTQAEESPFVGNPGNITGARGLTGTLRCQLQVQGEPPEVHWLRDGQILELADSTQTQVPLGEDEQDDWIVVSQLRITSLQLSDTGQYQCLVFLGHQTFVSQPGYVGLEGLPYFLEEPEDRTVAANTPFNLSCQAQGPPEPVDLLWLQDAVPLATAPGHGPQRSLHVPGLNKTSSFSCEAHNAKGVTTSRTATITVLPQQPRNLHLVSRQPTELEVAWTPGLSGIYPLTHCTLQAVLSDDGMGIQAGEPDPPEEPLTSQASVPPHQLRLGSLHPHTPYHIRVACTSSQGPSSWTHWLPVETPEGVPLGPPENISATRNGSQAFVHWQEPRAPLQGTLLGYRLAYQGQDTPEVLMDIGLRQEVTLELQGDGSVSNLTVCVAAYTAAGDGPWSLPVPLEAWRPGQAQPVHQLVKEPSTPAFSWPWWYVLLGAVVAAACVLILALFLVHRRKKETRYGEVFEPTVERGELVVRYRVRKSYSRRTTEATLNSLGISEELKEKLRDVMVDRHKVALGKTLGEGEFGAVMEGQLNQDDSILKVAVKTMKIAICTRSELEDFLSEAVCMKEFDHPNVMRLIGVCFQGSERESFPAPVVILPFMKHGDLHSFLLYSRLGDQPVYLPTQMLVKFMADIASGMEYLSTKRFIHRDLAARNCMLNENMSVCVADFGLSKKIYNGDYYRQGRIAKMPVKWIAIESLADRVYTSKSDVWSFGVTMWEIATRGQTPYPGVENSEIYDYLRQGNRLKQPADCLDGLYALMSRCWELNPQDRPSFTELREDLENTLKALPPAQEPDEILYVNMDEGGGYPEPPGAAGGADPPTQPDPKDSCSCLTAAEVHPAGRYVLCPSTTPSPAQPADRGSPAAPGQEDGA
The experiment in a line: Filter-binding radiometric kinase activity assay (KinaseProfiler, Eurofins). The format is biochemical. The note with it: 1 µM compound; read-out: % Residual enzymatic activity at 1 µM AXL. Here is the method:
(§1) Filter-binding radiometric kinase activity assay (Kinase Profiler™) from Eurofins Discovery was used to determine the % of inhibition and/or IC50 values. […] The reaction is initiated by the addition of the Mg/ATP mixture. After incubation for 40 minutes at room temperature, the reaction is stopped by the addition of phosphoric acid to a concentration of 0.5%. 10 µL of the reaction is then spotted onto a P30 filter mat and washed four times for 4 minutes in 0.425% phosphoric acid and once in methanol prior to drying and scintillation counting. The IC50 values were derived by fitting a sigmoidal dose-response curve to a plot of assay readout over inhibitor concentration. All fits were computed with the GraphPad Prism Software (San Diego, CA, United States of America). Ki values were derived from IC5o values using Cheng Prusoff equation (Cheng Y et al., Biochem Pharmacol 22(23):3099-3108, 1973).

The target of a further assay is T2, MET (Homo sapiens, UniProt P08581).
T2 construct: purchased Eurofins Discovery (Kinase Profiler service)
The description is as above. The format is biochemical. The note with it: 1 µM compound; read-out: % Residual enzymatic activity at 1 µM MET. Here is the method:
as §1

For the next assay, the target named is T3, Mer (Homo sapiens, UniProt Q12866).
T3 construct: purchased Eurofins Discovery (Kinase Profiler service)
T3 sequence (Q12866 21-999): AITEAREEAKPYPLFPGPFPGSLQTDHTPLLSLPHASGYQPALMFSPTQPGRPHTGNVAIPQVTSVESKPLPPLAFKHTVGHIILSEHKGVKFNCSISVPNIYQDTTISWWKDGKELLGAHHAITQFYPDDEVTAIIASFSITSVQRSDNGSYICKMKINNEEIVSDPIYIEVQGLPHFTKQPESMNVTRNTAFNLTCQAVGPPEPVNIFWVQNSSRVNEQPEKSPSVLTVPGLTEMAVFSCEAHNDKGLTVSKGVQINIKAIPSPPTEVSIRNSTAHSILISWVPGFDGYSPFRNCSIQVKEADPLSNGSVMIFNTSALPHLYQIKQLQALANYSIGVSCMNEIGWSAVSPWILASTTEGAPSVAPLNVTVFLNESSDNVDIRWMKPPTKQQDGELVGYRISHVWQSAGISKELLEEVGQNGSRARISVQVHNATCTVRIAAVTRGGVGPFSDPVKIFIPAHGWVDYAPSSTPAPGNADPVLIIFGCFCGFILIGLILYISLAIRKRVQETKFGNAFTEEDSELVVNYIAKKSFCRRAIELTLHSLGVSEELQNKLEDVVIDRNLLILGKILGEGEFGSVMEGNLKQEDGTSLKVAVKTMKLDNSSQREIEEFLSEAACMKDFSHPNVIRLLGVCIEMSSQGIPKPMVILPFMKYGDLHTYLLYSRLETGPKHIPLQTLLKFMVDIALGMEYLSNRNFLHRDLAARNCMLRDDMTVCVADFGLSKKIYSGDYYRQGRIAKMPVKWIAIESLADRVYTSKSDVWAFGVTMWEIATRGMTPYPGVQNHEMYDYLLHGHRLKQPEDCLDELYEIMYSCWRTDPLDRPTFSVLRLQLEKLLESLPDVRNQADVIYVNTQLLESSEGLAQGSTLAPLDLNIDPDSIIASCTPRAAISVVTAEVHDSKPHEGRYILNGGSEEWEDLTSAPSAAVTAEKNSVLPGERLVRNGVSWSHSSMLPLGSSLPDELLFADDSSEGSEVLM
The description is as above. The note with it: 1 µM compound; read-out: % Residual enzymatic activity at 1 µM Mer. The format is biochemical. As for the experimental part: as §1

Another assay concerns the target T4, TYRO3 (Homo sapiens, UniProt Q06418).
T4 construct: purchased Eurofins Discovery (Kinase Profiler service)
T4 sequence (Q06418 41-890): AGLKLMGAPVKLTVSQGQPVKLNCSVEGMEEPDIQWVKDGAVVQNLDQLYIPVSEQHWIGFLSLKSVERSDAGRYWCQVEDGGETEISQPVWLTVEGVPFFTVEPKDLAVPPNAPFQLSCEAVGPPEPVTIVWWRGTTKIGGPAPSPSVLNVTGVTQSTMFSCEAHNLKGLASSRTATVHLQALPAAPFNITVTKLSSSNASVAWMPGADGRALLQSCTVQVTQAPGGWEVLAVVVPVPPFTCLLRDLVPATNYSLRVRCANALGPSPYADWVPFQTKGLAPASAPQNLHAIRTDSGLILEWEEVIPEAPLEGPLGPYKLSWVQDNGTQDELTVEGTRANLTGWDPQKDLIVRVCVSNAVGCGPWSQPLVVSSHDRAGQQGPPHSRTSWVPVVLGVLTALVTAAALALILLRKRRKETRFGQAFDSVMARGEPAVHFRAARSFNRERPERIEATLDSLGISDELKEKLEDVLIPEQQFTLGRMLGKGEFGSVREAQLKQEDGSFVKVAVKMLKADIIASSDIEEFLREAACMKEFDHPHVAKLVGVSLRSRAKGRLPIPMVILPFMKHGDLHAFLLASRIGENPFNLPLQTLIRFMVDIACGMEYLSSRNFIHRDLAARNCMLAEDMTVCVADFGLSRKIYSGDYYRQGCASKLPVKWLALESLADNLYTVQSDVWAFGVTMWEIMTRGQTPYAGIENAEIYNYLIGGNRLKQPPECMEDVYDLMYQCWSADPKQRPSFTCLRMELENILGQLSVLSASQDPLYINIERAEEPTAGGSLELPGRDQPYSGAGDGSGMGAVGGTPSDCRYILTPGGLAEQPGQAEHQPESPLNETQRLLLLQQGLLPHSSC
The description is as above. It is filed as biochemical. The note with it: 1 µM compound; read-out: % Residual enzymatic activity at 1 µM TYRO3. As for the experimental part:
as §1

The next assay addresses CDK2E (Homo sapiens, UniProt P24941). The experiment in a line: ADP Glo Kinase assay. It is filed as biochemical. The note with it: 1 µM compound; read-out: % Residual enzymatic activity at 1 µM CDK2E. As for the experimental part: Inhibition of CDKs and FLT3 were determined using ADP Glo Kinase assays, as previously described in International Patent Publication No WO 2017/020065.
For orientation: In ADP-Glo the light output rises with the ADP produced.

A further assay concerns MV4-11. Briefly: Proliferation assay (MTT, leukaemia cancer cell line). The format is cell-based. The note with it: Homo sapiens; 1 µM compound, MV4-11 cells. From the text:
Compounds from Example 1 were subjected to standard resazurin and MTT assays on solid tumour and leukaemia cancer cell lines, respectively, as previously reported (Wang S et al., J Med Chem 47:1662-1675, 2004 and Diab S et al., CheMedChem 9:962-972, 2014).

T2 sequence (P08581 25-1390): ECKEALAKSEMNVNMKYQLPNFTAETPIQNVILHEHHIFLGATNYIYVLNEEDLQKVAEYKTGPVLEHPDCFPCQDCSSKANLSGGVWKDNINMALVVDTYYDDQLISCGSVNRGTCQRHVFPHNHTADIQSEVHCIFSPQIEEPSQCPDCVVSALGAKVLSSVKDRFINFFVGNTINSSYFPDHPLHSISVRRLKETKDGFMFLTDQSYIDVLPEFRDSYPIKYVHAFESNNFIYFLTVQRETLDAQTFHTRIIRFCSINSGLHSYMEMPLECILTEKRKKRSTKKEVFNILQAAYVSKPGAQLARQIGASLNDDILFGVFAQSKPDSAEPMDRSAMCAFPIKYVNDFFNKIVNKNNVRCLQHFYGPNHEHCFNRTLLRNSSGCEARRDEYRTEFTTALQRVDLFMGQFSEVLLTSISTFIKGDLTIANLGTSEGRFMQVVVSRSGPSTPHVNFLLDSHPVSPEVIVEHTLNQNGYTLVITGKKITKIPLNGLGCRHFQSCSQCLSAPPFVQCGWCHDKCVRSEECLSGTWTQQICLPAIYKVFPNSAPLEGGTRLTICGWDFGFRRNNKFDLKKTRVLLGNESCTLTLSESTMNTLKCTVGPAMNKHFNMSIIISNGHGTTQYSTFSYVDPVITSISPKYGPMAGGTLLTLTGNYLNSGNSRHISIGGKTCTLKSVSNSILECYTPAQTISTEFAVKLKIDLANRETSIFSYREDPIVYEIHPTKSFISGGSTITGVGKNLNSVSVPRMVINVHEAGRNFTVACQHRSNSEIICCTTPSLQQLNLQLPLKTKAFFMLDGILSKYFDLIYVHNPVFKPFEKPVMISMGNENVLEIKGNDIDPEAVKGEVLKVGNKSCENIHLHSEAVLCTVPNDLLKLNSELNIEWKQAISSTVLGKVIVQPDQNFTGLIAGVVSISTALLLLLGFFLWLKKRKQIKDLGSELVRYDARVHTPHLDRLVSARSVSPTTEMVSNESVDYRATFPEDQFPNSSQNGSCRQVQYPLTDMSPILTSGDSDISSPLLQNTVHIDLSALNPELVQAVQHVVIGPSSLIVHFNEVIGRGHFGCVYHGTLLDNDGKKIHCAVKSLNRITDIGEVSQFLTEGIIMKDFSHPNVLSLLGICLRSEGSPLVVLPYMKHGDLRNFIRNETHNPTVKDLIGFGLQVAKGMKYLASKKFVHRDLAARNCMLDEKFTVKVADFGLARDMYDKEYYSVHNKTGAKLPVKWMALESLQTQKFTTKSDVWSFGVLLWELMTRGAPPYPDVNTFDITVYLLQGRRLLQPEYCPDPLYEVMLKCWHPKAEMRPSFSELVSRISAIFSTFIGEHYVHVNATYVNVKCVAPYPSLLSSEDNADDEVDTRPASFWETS

As for `Nc1ncnc(Oc2ccc(NC(=O)c3cccn(-c4ccc(Cl)cc4)c3=O)c(F)c2)c1Cl` [Cmpd 33, N-(4-((6-amino-5-chloropyrimidin-4-yl)oxy)-2-fluorophenyl)-1-(4-chlorophenyl)-2-oxo-1,2-dihydropyridine-3-carboxamide], the remaining activity at 1 µM on AXL was found to be 23%; on MET, 10%; at Mer, 74%; at TYRO3 it was 6%; at CDK2E it was 82%. In the assay on MV4-11, this compound returned an activity at 1 µM of 1%.

For the compound `Nc1ncnc(Oc2ccc(NC(=O)c3cccn(-c4ccc(F)cc4)c3=O)c(Cl)c2)c1F` [Cmpd 38, N-(4-((6-amino-5-fluoropyrimidin-4-yl)oxy)-2-chlorophenyl)-1-(4-fluorophenyl)-2-oxo-1,2-dihydropyridine-3-carboxamide], the remaining activity at 1 µM turned out to be 69% at AXL; 68% on MET; 92% on Mer; 50% at TYRO3; 90% on CDK2E. In the assay with MV4-11, the activity at 1 µM was 43%.

For `Nc1ncnc(Oc2ccc(NC(=O)c3cccn(-c4ccc(F)cc4)c3=O)c(Cl)c2)c1Cl` [Cmpd 37, N-(4-((6-amino-5-chloropyrimidin-4-yl)oxy)-2-chlorophenyl)-1-(4-fluorophenyl)-2-oxo-1,2-dihydropyridine-3-carboxamide], the remaining activity at 1 µM came to 78% at AXL; 88% at MET; 87% on Mer; 39% at TYRO3; 96% at CDK2E. In the assay on MV4-11, this compound had an activity at 1 µM of 48%.

As to `Nc1ncnc(Sc2ccc(NC(=O)c3cccn(-c4ccc(F)cc4)c3=O)c(F)c2)c1Cl` [Cmpd 39, N-(4-((6-amino-5-chloropyrimidin-4-yl)thio)-2-fluorophenyl)-1-(4-fluorophenyl)-2-oxo-1,2-dihydropyridine-3-carboxamide], the remaining activity at 1 µM on AXL stood at 87%; at MET, 70%; at Mer, 82%; at CDK2E it was 88%. This compound gave an activity at 1 µM in the assay with MV4-11 of 4%.

As to `Nc1ncnc(Oc2cc(F)c(NC(=O)c3cccn(-c4ccc(F)cc4)c3=O)cc2F)c1F` [Cmpd 20, N-(4-((6-amino-5-fluoropyrimidin-4-yl)oxy)-2,5-difluorophenyl)-1-(4-fluorophenyl)-2-oxo-1,2-dihydropyridine-3-carboxamide], the remaining activity at 1 µM at AXL came out at 31%; at MET it was 4%; on Mer it was 54%; at TYRO3, 2%; on CDK2E, 93%. This compound also gave an activity at 1 µM with MV4-11 of 5%.

As to `Cc1ccc(-n2cccc(C(=O)Nc3ccc(Oc4ncnc(N)c4Cl)cc3F)c2=O)cc1` [Cmpd 15, N-(4-((6-amino-5-chloropyrimidin-4-yl)oxy)-2-fluorophenyl)-2-oxo-1-(p-tolyl)-1,2-dihydropyridine-3-carboxamide], the remaining activity at 1 µM stood at 64% on AXL, 74% at MET, 99% at Mer and 39% on TYRO3. This compound also had an activity at 1 µM in the assay on MV4-11 of 26%.

`Nc1ncc(Cl)c(Oc2ccc(NC(=O)c3cccn(-c4ccc(F)cc4)c3=O)cc2F)n1` [Cmpd 24, N-(4-((2-amino-5-chloropyrimidin-4-yl)oxy)-3-fluorophenyl)-1-(4-fluorophenyl)-2-oxo-1,2-dihydropyridine-3-carboxamide]: the remaining activity at 1 µM at AXL worked out at 99%; at MET, 74%; at Mer, 87%; at TYRO3 it was 94%. For the same compound, in the assay on MV4-11, the activity at 1 µM came out at 27%.

In the case of `Nc1ncc(Cl)c(Oc2ccc(NC(=O)c3cccn(-c4ccc(F)cc4)c3=O)c(F)c2)n1` [Cmpd 25, N-(4-((2-amino-5-chloropyrimidin-4-yl)oxy)-2-fluorophenyl)-1-(4-fluorophenyl)-2-oxo-1,2-dihydropyridine-3-carboxamide], the remaining activity at 1 µM amounted to 92% on AXL, 87% at MET, 88% on Mer and 89% at TYRO3. Moreover, the activity at 1 µM with MV4-11 amounted to 65%.
